1 molecule from patent US11331396B2, “Development of injectable fiducial markers for image guided radiotherapy with dual MRI and CT visibility” (TECHNICAL UNIVERSITY OF DENMARK, priority 2017, dated 2022) can be followed below.

A short description of the series: In-vitro confocal microscopy of markers containing fluorescent amphiphiles in PBS. As to conditions: LAP:GTH with co-solvent (5% PC or 10% EtOH). It is filed as physicochemical. As for the experimental part: DOPE-RhB was dissolved in EtOH or triglycerides and added to the formulations in amounts resulting in the desired final concentrations (˜1.3*10^−3 ug/uL) in formulations consisting of lactose acetate:propionate 1:1/lactose isobutyrate co-formulated with either 25 wt % EtOH or 40 wt % triglyceride (GTO/GTH), with or without 10 wt % EtOH or 5 wt % PC (˜240 uL formulations in total). The DOPE-RhB solutions were made from a motherstock of 1 mg/mL DOPE-RhB in EtOH with serial dilution into EtOH/triglyceride (GTO/GTH). The injected formulations were imaged in PBS in 8-well microscope slides under the confocal microscope. […]
Laser Scanning Confocal Microscopy was performed using a Leica TCS SP5 Scanning Laser Confocal Microscope operated using a 61× wet objective and a 561 nm excitation DPPS Laser. Samples (˜5-10 uL) were prepared in 8 well microscope slides containing PBS buffer and imaged on the same day to study the distribution of fluorescence signal within the material. In case of Rhodamine B, emission was detected between 575 and 674 nm, while in case of carboxy fluorescein emission was detected between 480 and 580 nm. […]

On to `CCCCCCCC/C=C\CCCCCCCC(=O)OC[C@H](COP(=O)(O)OCCNC(=O)c1ccc2c(c1)C(=O)OC21c2ccc(O)cc2Oc2cc(O)ccc21)OC(=O)CCCCCCC/C=C\CCCCCCCC.N.N` [DOPE-CF], for which the “Distribution of fluorophore labeled lipid in the marker” value is “clearly higher distribution of DOPE-RhB and DOPE-CF in the rim of the injected formulation”.
